Measured values published in patent publication US6881739B1, “Use of cortisol antagonists in the treatment of heart failure” (priority 1999, dated 2005).

System: heart failure
Assay: Treatment of heart failure patients with ketoconazole (case observations, Examples 1 and 2)
Format: in vivo, human
Description: Also, moderate dyspnea and increased heart rate as well as an increase in liver size (indicative of fluid retention in the liver). Patient being treated for heart failure with lisinopril (Zestril®) Treatment: 400 mg of a racemate of the Cis-2S,4R and Cis-2R,4S isomers of ketoconazole (Fungoral™ tablets—Janssen-Cilag, Belgium) was administered at 10.00 pm every day for a 3 month period. Observations: Body weight reduced by 3.8 kg—attributable to a reduction in fluid retention. Heart rate fell from 72 beats/min to 62 beats/min. Reduction in liver size of 10% and a resulting reduction in liver transaminases • S-ASAT reduced from 0.44 to 0.30 μKat/L • S-ALAT reduced from 1.0 to 0.39 μKat/L Dyspnea, oedema of lower limbs and body fluid in the lungs reduced. Physical health as measured by a subnormal physical exercise test (Faggiano, P. et al. supra) improved by 15%.
Patient being treated for heart failure with furosemid (40 mg/day)
Treatment: As for Example 1.

[1] = Subject 1, 400 mg daily for 3 months
[2] = Subject 2, treatment as for Example 1

## CC(=O)N1CCN(c2ccc(OCC3COC(Cn4ccnc4)(c4ccc(Cl)cc4Cl)O3)cc2)CC1 (racemic) [ketoconazole]
Subject 1 (on lisinopril), 400 mg at 10.00 pm every day for 3 months, attributable to reduced fluid retention
  Body weight reduced by: 3.8 kg
[1]
  Dose of co-administered lisinopril (Zestril) could be reduced: half of original dose
  Dyspnea, oedema of lower limbs and body fluid in the lungs: reduced
  Physical health as measured by a subnormal physical exercise test, improved by: 15%
  Reduction in liver size: 10%
Subject 1, 400 mg daily for 3 months, fell from 72 beats/min
  Heart rate after treatment: 62 beats/min
Subject 1, 400 mg daily for 3 months, reduced from 0.44
  S-ASAT after treatment: 0.30 μKat/L
Subject 1, 400 mg daily for 3 months, reduced from 1.0
  S-ALAT after treatment: 0.39 μKat/L
Subject 2 (on furosemid 40 mg/day), treatment as for Example 1
  Body weight reduced by: 4.2 kg
[2]
  Dyspnea, oedema of lower limbs and body fluid in lungs: reduced
  Physical health as measured by a subnormal physical exercise test, improved by: 20%
  Reduction in liver size: 15%
  Time from commencement of treatment until furosemid could be stopped: ≤ 6 weeks
Subject 2, treatment as for Example 1, fell from 74 beats/min
  Heart rate after treatment: 60 beats/min
Subject 2, treatment as for Example 1, reduced from 0.58
  S-ASAT after treatment: 0.32 μKat/L
Subject 2, treatment as for Example 1, reduced from 0.92
  S-ALAT after treatment: 0.68 μKat/L
